System: erlotinib-resistant H1975 cells
Experiment: cells
Assay type: cell-based
Conditions: Homo sapiens, NCI-H1975, 72 h, read-out: IC50 (cell viability)
Method: The cells were plated at 5×10^4/ml in 100 μL of culture medium in a 96-well microtiter plate, followed by incubation with drugs. Cell viability after the treatment was determined using 3-(4,5-dimethylthiazol-2-yl)-5(3-carboxymethoxy-phenyl)-2-(4-sulfophenyl)-2H-tetrazolium (MTS) assay (Promega, Madison, Wis.) per the manufacturer's instruction. Absorbance was measured at 490 nm for MTS assay with an enzyme-linked immunosorbent assay plate reader from MTX Lab Systems, Inc. (Vienna, Va.). […] Each experiment was performed in triplicate, and the results were expressed as mean±SD.

SMILES: CCN(CC)CCCC(C)Nc1ccnc2cc(Cl)ccc12 (stereo not shown) [chloroquine]
- IC50: 75 µM

Source: patent US20150209364A1, “METHOD FOR TREATING EPIDERMOID CARCINOMA” (Johnpro Biotech Inc., priority 2011, published 2015)
